One assay relates to carageenan-induced edema. Description: Carrageenan-induced rat paw edema test (anti-inflammatory activity). Format: in vivo, Sprague-Dawley rats. The essentials:
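Sprague-Dawley rats (male and female, 150-250 g), fasted 18 h, given compound orally at 50 mg/kg in 0.1% sodium CMC (alternatively i.v., s.c. or i.p.). 1% carrageenan injected sub-plantar in right hind paw 1 h later. Paw displacement read again 3 h later; % protection = [(Control−Test)/Control]×100 versus saline control.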

A further assay concerns NF-κB. The assay is described as follows: TNF-α-induced NF-κB-dependent luciferase expression in HEK cells. The class given is cell-based. The settings on record: luciferase in HEK/NF-κB cells, as described in Example 398; for inhibition at 1 µM: Homo sapiens, HEK293, 1 uM, read-out: NFkB inhibition @ 1 uM.
In another assay the test system is AP-1. The assay is described as follows: PMA-induced AP-1 luciferase expression in HEK cells. The settings on record: luciferase in HEK/AP-1 cells, as described in Example 398; for inhibition at 1 µM: AP1, 1 uM. Format: cell-based.
The mark [1] stands for this setting: rat paw edema, 50 mg/kg, reading 3 hours after carrageenan; [(Control−Test)/Control]×100%.
Setting [2] is: Rattus norvegicus, po, 3 h, rat paw edema, 50 mg/kg, reading 3 hours after carrageenan; [(Control−Test)/Control]×100%; read-out: % Protection P.

This note sets out measurements from US8829014B2, “Thiazole and thiophene analogues, and their use in treating autoimmune diseases and cancers” (Board of Supervisors of Louisiana State University and …, priority 2006, dated 2014).

As to “2-[4-(4-Methylsulfanyl-phenyl)-5-morpholin-4-yl-thiophen-2-yl]-3-phenyl-3H-quinazolin-4-one [Example 276]”, the “% Protection P” value with carageenan-induced edema (setting [1]) was 49%. The “NFkB inhibition @ 1 uM” value with NF-κB is recorded as −10. The “AP-1 inhibition @ 1 uM” value with AP-1 is −17.

Consider “4-{3-(4-Methanesulfonyl-phenyl)-5-[5-methyl-5-(2,2,2-trifluoro-ethoxy)-pyridine-2-yl]-thiophene-2-yl}-morpholine [Example 53]”, for which, in the assay with carageenan-induced edema (setting [1]), the “% Protection P” value was 2.08%. Moreover, the “NFkB inhibition @ 1 uM” value with NF-κB was −2.17. Further, the “AP-1 inhibition @ 1 uM” value in the assay with AP-1 is 25.04.

As to `Cc1ccc(C(=O)c2cc(-c3ccccc3)c(N3CCOCC3)s2)cc1` [Example 43, (5-Morpholin-4-yl-4-phenyl-thiophen-2-yl)-p-tolyl-methanone], the inhibition in vivo at 50 mg/kg with carageenan-induced edema (setting [2]) turned out to be 5.33%. For the same molecule, the inhibition at 1 µM in the assay on NF-κB was -15.3%; in the assay on AP-1 it was 27.3%.

For the molecule `COc1ccc(C(=O)c2cc(-c3ccccc3)c(N3CCOCC3)s2)cc1` [Example 44, (4-Methoxy-phenyl)-(5-morpholin-4-yl-4-phenyl-thiophene-2-yl)-methanone], the inhibition in vivo at 50 mg/kg in the assay on carageenan-induced edema (setting [2]) was 66.7%. For the same molecule, the inhibition at 1 µM worked out at 14.9% with NF-κB and 55.4% in the assay with AP-1.

`CSc1ccc(C(=O)c2cc(-c3ccccc3)c(N3CCOCC3)s2)cc1` [Example 47, (4-Methylsulfanyl-phenyl)-(5-morpholin-4-yl-4-phenyl-thiophene-2-yl)-methanone]: in the assay on carageenan-induced edema (setting [2]), the inhibition in vivo at 50 mg/kg is 5%. Further, the values for the inhibition at 1 µM with NF-κB and in the assay with AP-1 were -1.5% and 21.2%, respectively.

As for `O=C(c1ccncc1)c1cc(-c2ccccc2)c(N2CCOCC2)s1` [Example 51, (5-Morpholin-4-yl-4-phenyl-thiophene-2-yl)-pyridine-4-yl-methanone], the inhibition in vivo at 50 mg/kg with carageenan-induced edema (setting [2]) was 39.6%. In addition, the inhibition at 1 µM stood at 8.36% with NF-κB and 16.8% with AP-1.

As for `CC(=O)Nc1ccc(-c2cc(-c3nc4ccccc4c(=O)n3-c3ccccc3)sc2N2CCOCC2)cc1` [Example 274, N-{4-[2-Morpholin-4-yl-5-(4-oxo-3-phenyl-3-,4-dihydro-quinazolin-2-yl)-thiophene-3-yl]-phenyl}-acetamide], the “% Protection P” value in the assay with carageenan-induced edema (setting [1]) amounted to 28%. The “NFkB inhibition @ 1 uM” value in the assay on NF-κB came to 29.

Take `O=c1c2ccccc2nc(-c2cc(-c3ccncc3)c(N3CCOCC3)s2)n1-c1ccccc1` [Example 277]: the “% Protection P” value in the assay with carageenan-induced edema (setting [1]) is on record as 65%. In the assay with AP-1, the “AP-1 inhibition @ 1 uM” value was 38.

With `COc1ccccc1-n1c(-c2cc(-c3ccncc3)c(N3CCOCC3)s2)nc2ccccc2c1=O` [Example 298], in the assay on carageenan-induced edema (setting [1]), the “% Protection P” value turned out to be 42%. In the assay on NF-κB, the “NFkB inhibition @ 1 uM” value amounted to 55.

For `COc1ccc(C(=O)c2sc(Nc3ccccc3)nc2NC(=O)Nc2ccc(F)cc2)cc1` [Example 354, 1-(4-Fluoro-phenyl)-3-[5-(4-methoxy-benzoyl)-2-phenylamino-thiazol-4-yl]-urea], in the assay with carageenan-induced edema (rat paw edema, 50 mg/kg, reading 3 hours after carrageenan; [(Control−Test)/Control]×100%; 50 mg/kg), the “% Protection P” value is given as 26.27%.

Consider `COc1ccc(C(=O)c2sc(Nc3ccc(Cl)cc3)nc2NC(=O)Nc2ccc(F)cc2)cc1` [Example 355, 1-[2-(4-Chloro-phenylamino)-5-(4-methoxy-benzoyl)-thiazol-4-yl]-3-(4-fluoro-phenyl)-urea], for which the inhibition in vivo at 50 mg/kg in the assay on carageenan-induced edema (setting [2]) amounted to 62.6%.

On to `O=C(Nc1ccc(F)cc1)Nc1nc(Nc2ccc(Cl)cc2)sc1C(=O)c1ccc(Cl)cc1` [Example 357, 1-[5-(4-Chloro-benzoyl)-2-(4-chloro-phenylamino)-thiazol-4-yl]-3-(4-fluoro-phenyl)-urea], for which the inhibition in vivo at 50 mg/kg in the assay on carageenan-induced edema (setting [2]) stood at 24.3%.

As to `O=C(Nc1ccc(F)cc1)Nc1nc(Nc2ccc(Cl)cc2)sc1C(=O)c1ccc(Cl)cc1Cl` [Example 358, 1-[2-(4-Chloro-phenylamino)-5-(2,4-dichloro-benzoyl)-thiazol-4-yl]-3-(4-fluoro-phenyl)-urea], the inhibition in vivo at 50 mg/kg in the assay with carageenan-induced edema (setting [2]) stood at 72.5%.

On to `O=C(Nc1ccc(F)cc1)Nc1nc(Nc2ccc(Cl)cc2)sc1C(=O)c1cccnc1` [Example 359, 1-[2-(4-Chloro-phenylamino)-5-(pyridine-3-carbonyl)-thiazol-4-yl]-3-(4-fluoro-phenyl)-urea], for which the inhibition in vivo at 50 mg/kg in the assay on carageenan-induced edema (setting [2]) is 64.2%.

With `O=C(Nc1ccc(F)cc1)Nc1nc(Nc2ccc(Cl)cc2)sc1C(=O)c1ccncc1` [Example 360, 1-[2-(4-Chloro-phenylamino)-5-(pyridine-4-carbonyl)-thiazol-4-yl]-3-(4-fluoro-phenyl)-urea], the inhibition in vivo at 50 mg/kg with carageenan-induced edema (setting [2]) stood at 69.8%.

With `Cc1cc(-c2sc(Nc3ccc(Cl)cc3)nc2NC(=O)Nc2ccc(F)cc2)ncc1OCC(F)(F)F` [Example 361, 1-{2-(4-Chloro-phenylamino)-5-[4-methyl-5-(2,2,2-trifluoro-ethoxy)-pyridin-2-yl]-thiazol-4-yl}-3-(4-fluoro-phenyl)-urea], in the assay with carageenan-induced edema (setting [2]), the inhibition in vivo at 50 mg/kg is 77.9%.

With `COc1ccc(Nc2nc(NC(=O)Nc3ccc(F)cc3)c(C(=O)c3ccc(C)cc3)s2)cc1` [Example 362, 1-[2-(4-Methoxy-phenylamino)-5-(4-methyl-benzoyl)-thiazol-4-yl]-3-(4-fluoro-phenyl)-urea], the inhibition in vivo at 50 mg/kg in the assay on carageenan-induced edema (setting [2]) was found to be 61.3%.

`COc1ccc(Nc2nc(NC(=O)Nc3ccc(F)cc3)c(C(=O)c3ccc(Cl)cc3)s2)cc1` [Example 363, 1-[5-(4-Chloro-benzoyl)-2-(4-methoxy-phenylamino)-thiazol-4-yl]-3-(4-fluoro-phenyl)-urea]: the inhibition in vivo at 50 mg/kg in the assay on carageenan-induced edema (setting [2]) came to 54.5%.

For the molecule `COc1ccc(Nc2nc(NC(=O)Nc3ccc(F)cc3)c(C(=O)c3ccc(S(C)(=O)=O)cc3)s2)cc1` [Example 364, 1-(4-Fluoro-phenyl)-3-[5-(4-methanesulfonyl-benzoyl)-2-(4-methoxy-phenylamino)-thiazol-4-yl]-urea], the “% Protection P” value in the assay on carageenan-induced edema (setting [1]) was found to be 66.78%.

Turning to `COc1ccc(Nc2nc(NC(=O)Nc3ccc(F)cc3)c(C(=O)c3ccncc3)s2)cc1` [Example 365, 1-(4-Fluoro-phenyl)-3-[2-(4-methoxy-phenylamino)-5-(pyridine-4-carbonyl)-thiazol-4-yl]-urea], in the assay with carageenan-induced edema (setting [2]), the inhibition in vivo at 50 mg/kg came out at 69.6%.

Consider `COc1ccc(Nc2nc(NC(=O)Nc3ccc(F)cc3)c(-c3cc(C)c(OC)c(C)n3)s2)cc1` [Example 366, 1-(4-Fluoro-phenyl)-3-[5-(5-methoxy-4,6-dimethyl-pyridin-2-yl)-2-(4-methoxy-phenylamino)-thiazol-4-yl]-urea], for which, in the assay with carageenan-induced edema (setting [2]), the inhibition in vivo at 50 mg/kg came out at 19.1%.

Turning to `COc1ccc(C(=O)c2sc(N3CCN(C(=O)c4ccco4)CC3)nc2-c2ccco2)cc1` [Example 372, {2-[4-(Furan-2-carbonyl)-piperazin-1-yl]-4-furan-2-yl-thiazol-5-yl}-(4-methoxy-phenyl)-methanone], in the assay with carageenan-induced edema (setting [2]), the inhibition in vivo at 50 mg/kg stood at 52.2%.

As to `O=C(c1ccccn1)c1sc(N2CCN(C(=O)c3ccco3)CC2)nc1-c1ccco1` [Example 380, {2-[4-(Furan-2-carbonyl)-piperazin-1-yl]-4-furan-2-yl-thiazol-5-yl}-pyridin-2-yl-methanone], in the assay on carageenan-induced edema (setting [2]), the inhibition in vivo at 50 mg/kg came to 42%.

For the molecule `Cc1ccc(C(=O)c2sc(N3CCN(C(=O)c4ccco4)CC3)nc2-c2ccccc2)cc1` [Example 381, {2-[4-(Furan-2-carbonyl)-piperazin-1-yl]-4-phenyl-thiazol-5-yl}-tolyl-methanone], in the assay with carageenan-induced edema (setting [1]), the “% Protection P” value was 53%. The “AP-1 inhibition @ 1 uM” value in the assay with AP-1 worked out at 10.42.

Take `COc1ccc(C(=O)c2sc(N3CCN(C(=O)c4ccco4)CC3)nc2-c2ccccc2)cc1` [Example 382, {2-[4-(Furan-2-carbonyl)-piperazin-1-yl]-4-phenyl-thiazol-5-yl}-(4-methoxy-phenyl)-methanone]: in the assay on carageenan-induced edema (setting [2]), the inhibition in vivo at 50 mg/kg was found to be 46%.

For the molecule `O=C(c1ccncc1)c1sc(N2CCN(C(=O)c3ccco3)CC2)nc1-c1ccccc1` [Example 387, {2-[4-(Furan-2-carbonyl)-piperazin-1-yl]-4-phenyl-thiazol-5-yl}-pyridin-4-yl-methanone], the inhibition in vivo at 50 mg/kg in the assay on carageenan-induced edema (setting [2]) amounted to 32%.

Turning to `COc1ccccc1Nc1nc(-c2ccccc2)c(C(=O)c2sc(Nc3ccccc3OC)nc2-c2ccccc2)s1` [Example 391, Bis-[2-(2-methoxy-phenylamino)-4-phenyl-thiazol-5-yl]-methanone], the inhibition in vivo at 50 mg/kg with carageenan-induced edema (setting [2]) came to 59%.

As to `COc1cccc(Nc2nc(-c3ccccc3)c(C(=O)c3sc(Nc4cccc(OC)c4)nc3-c3ccccc3)s2)c1` [Example 392, Bis-[2-(3-methoxy-phenylamino)-4-phenyl-thiazol-5-yl]-methanone], the inhibition in vivo at 50 mg/kg in the assay on carageenan-induced edema (setting [2]) was 62%.

Consider `COc1ccc(Nc2nc(-c3ccccc3)c(C(=O)c3sc(Nc4ccc(OC)cc4)nc3-c3ccccc3)s2)cc1` [Example 393, Bis-[2-(4-methoxy-phenylamino)-4-phenyl-thiazol-5-yl]-methanone], for which the inhibition in vivo at 50 mg/kg in the assay with carageenan-induced edema (setting [2]) turned out to be 32%.

For the molecule “Bis-(2-methylamino-4-benzayl-thiazole-5-yl)-methanone [Example 132]”, the “% Protection P” value with carageenan-induced edema (setting [1]) is recorded as 47%.

For “Diphenyl[carbonylbis(4-Benzyl-1,3-thiazole-5,2-diyl)]biscarbamate [Example 395]”, in the assay on carageenan-induced edema (setting [1]), the “% Protection P” value came to 66%.

For the molecule “N-[4-(5-Morpholin-4-yl-4-thiophene-2-carbonyl)-phenyl]-acetamide [Example 49]”, the “% Protection P” value in the assay with carageenan-induced edema (setting [1]) is on record as 68.31%.

With “[4-(4-Chloro-phenyl)-5-morpholin-4-yl-thiophen-2-yl]-(5-methoxy-4,6-dimethyl-pyridin-2-yl)-methanone [Example 76]”, in the assay with carageenan-induced edema (setting [1]), the “% Protection P” value is 17%.

One may read the inhibition as the change of the read-out against control, counted positive when it falls.
